Results on three molecules are retold here after ChEMBL document CHEMBL1151278, “Hygrocins a and B, naphthoquinone macrolides from Streptomyces hygroscopicus” (2005).

Each structure is given as a SMILES string. Converted amounts (≈) assume the structure as drawn.

What all share (assay type): functional
Assay [1] relates to Haemophilus influenzae. Nature of the assay: Antibacterial activity against Haemophilus influenzae.
In assay [2] the test system is Staphylococcus aureus. The assay can be described thus: Antibacterial activity against Staphylococcus aureus 2999.
The test system of assay [3] is Escherichia coli. The assay can be described thus: Antibacterial activity against Escherichia coli 1074.
The subject of assay [4] is Streptococcus pneumoniae. Nature of the assay: Antibacterial activity against Streptococcus pneumoniae.
The subject of assay [5] is Neisseria gonorrhoeae. The assay can be described thus: Antibacterial activity against Neisseria gonorrhoeae.
For assay [6], the system named is Enterococcus faecalis. Nature of the assay: Antibacterial activity against Streptococcus faecalis 1362/3.
The subject of assay [7] is Streptococcus pneumoniae. The assay can be described thus: Antibacterial activity against Streptococcus pneumoniae by NCCLS M27A method.
Assay [8] relates to Escherichia coli. The assay can be described thus: Antibacterial activity against Escherichia coli 1074 by NCCLS M27A method.
Another assay deals with Aspergillus niger. Nature of the assay: Antifungal activity against Aspergillus niger by NCCLS M27A method.
The subject of assay [9] is Staphylococcus aureus. The assay can be described thus: Antibacterial activity against Staphylococcus aureus 2999 by NCCLS M27A method.
Assay [10] relates to Enterococcus faecalis. Nature of the assay: Antibacterial activity against Streptococcus faecalis 1362/3 by NCCLS M27A method.
The next assay deals with Aspergillus fumigatus. Nature of the assay: Antifungal activity against Aspergillus fumigatus by NCCLS M27A method.
Assay [11] has as its system Neisseria gonorrhoeae. The assay can be described thus: Antibacterial activity against Neisseria gonorrhoeae by NCCLS M27A method.
A further assay relates to Candida albicans. The assay can be described thus: Antifungal activity against Candida albicans by NCCLS M27A method.
Assay [12] concerns Haemophilus influenzae. Nature of the assay: Antibacterial activity against Haemophilus influenzae by NCCLS M27A method.

Take `CO[C@H]1/C=C/O[C@@]2(C)Oc3c(C)c(O)c4c(c3C2=O)C(=O)C=C(NC(=O)/C(C)=C\C=C\[C@H](C)[C@H](O)[C@@H](C)[C@@H](O)[C@@H](C)[C@H](OC(C)=O)[C@@H]1C)C4=O` [RIFAMYCIN S]: the MIC came out at 0.01 µg/mL (≈ 0.0144 µM) against Haemophilus influenzae [1]; 0.01 µg/mL (≈ 0.0144 µM) in the assay with Staphylococcus aureus [2]; 128 µg/mL (≈ 184 µM) with Escherichia coli [3]; 0.1 µg/mL (≈ 0.144 µM) in the assay with Streptococcus pneumoniae [4]; 0.1 µg/mL (≈ 0.144 µM) in the assay with Neisseria gonorrhoeae [5]; 16 µg/mL (≈ 23 µM) in the assay with Enterococcus faecalis [6].

For the molecule `CCC1/C=C/[C@H](O)[C@H](C)OC(=O)/C(C)=C\CC(=O)NC2=CC(=O)c3c(cc(C)c(O)c3C(=O)CC1)C2=O` (some centres undefined) [HYGROCIN A], the MIC with Streptococcus pneumoniae [7] came out at 16 µg/mL (≈ 31.4 µM); against Escherichia coli [8] it was 128 µg/mL (≈ 251 µM); with Aspergillus niger it was 32 µg/mL (≈ 62.8 µM); against Staphylococcus aureus [9], 128 µg/mL (≈ 251 µM); with Enterococcus faecalis [10] it was 128 µg/mL (≈ 251 µM); in the assay with Aspergillus fumigatus it was 16 µg/mL (≈ 31.4 µM). For the same molecule, the MIC came out at 64 µg/mL (≈ 126 µM) with Neisseria gonorrhoeae [11], 128 µg/mL (≈ 251 µM) with Candida albicans and 128 µg/mL (≈ 251 µM) in the assay with Haemophilus influenzae [12].

Turning to `CCC1/C=C/[C@H](O)[C@H](C)OC(=O)[C@@]2(C)C=CC(=O)NC3=C2C(=O)c2c(cc(C)c(O)c2C(=O)CC1)C3=O` (some centres undefined) [HYGROCIN B], the MIC against Streptococcus pneumoniae [7] is 128 µg/mL (≈ 252 µM); with Escherichia coli [8], 128 µg/mL (≈ 252 µM); against Aspergillus niger it was 64 µg/mL (≈ 126 µM); against Staphylococcus aureus [9], 128 µg/mL (≈ 252 µM); in the assay on Enterococcus faecalis [10], 128 µg/mL (≈ 252 µM); in the assay on Aspergillus fumigatus it was 32 µg/mL (≈ 63 µM). Besides, the MIC in the assay on Neisseria gonorrhoeae [11], against Candida albicans and against Haemophilus influenzae [12] was 128 µg/mL (≈ 252 µM) throughout.
